Source: patent US8871741B2, “Inhibition of TNF-α induced activation of NFKB by pentosan polysulfate” (Icahn School of Medicine at Mount Sinai, priority 2010, dated 2014)
Where two headings read alike, the source gives them in different places.

Assays:
[1] = tested on: proximal tubular cells; conditions: for cell death: wild type proximal tubular cells, 24 hours
Method: To determine if CHOP played a role in ER stress induced renal cell death, primary proximal tubular cells were isolated from 2 month-old CHOP^−/− and wild type mice using a method described by Sheridan et al. (Am J Physiol 1993, 265:F342-350). Briefly, kidneys were perfused with a phosphate buffer solution and dynabead M-450 (5×10^5 beads/ml, Invitrogen, LA, CA). Cortices were then cut to small pieces and incubated with 0.1% collagenase and 100 u/ml DNase at 37° C. for 40 minutes. After pressing tissues through a 100 μm cell strainer (BD Biosciences, Bedford, Mass.) with a syringe plunger, glomeruli were removed by a magnetic concentrator. The remaining tissues were collected with a 40 μm cell strainer, washed and cultured with medium containing DMEM/F12 (1:1), 5 μg/ml transferrin, 5 μg/ml insulin, 50 nM hydrocortisone, 5% FBS, 100 u/ml each of penicillin and streptomycin. […] […] 24 hours later, cells were gently washed and stained with trypan blue, the number of live cells from each well was counted.

[2] = tested on: MMP-2; assay: Zymography of U937 cell supernatants, MMP-2; assay type: cell-based, human; conditions: U937 cells, heparin 100 μg/ml
Method: Human pro-monocytic U937 cells were obtained from American Type Culture Collection (Manassas, Va.) and grown in RPMI medium supplemented with 10% FBS. U937 cells were plated in six-well plates at a density of 5×10^6 cells/ml. The cells were then stimulated with 10 ng/ml TNF-α, in the presence or absence of either increasing concentrations of PPS (10-100 μg/ml) or heparin (100 μg/ml), and incubated at 37° C. for 3 hours. Following stimulation, cells were placed in 0.1% BSA-serum-free medium for 16-18 hours. The media was then collected, centrifuged, and supernatants were stored at −80° C. for the assessment of MMP activity. The cell number was determined by direct cell counting.
MMP activity in aortic extracts and conditioned media from monocytes was assessed, as previously described (Jacot T A, et al., Lab Invest. 1996; 75:791-79). Briefly, aortic segments were homogenized and extracted in RIPA buffer (25 mM Tris, pH 7.4, 150 mM KCl, 5 mM EDTA, 1% Nonidet P-40, 0.5% sodium deoxycholate, and 0.1% SDS). Insoluble material was precipitated by centrifugation, and soluble extracts were collected and stored at −20° C. for further analysis. For in vitro experiments, cell supernatants were centrifuged to remove cellular debris, and diluted appropriately to normalize for cell number. Aortic extracts and conditioned media were then mixed with sample buffer (1% SDS, 0.08 M Tris pH 6.8, 4% glycerol, and 0.006% bromophenol blue), and loaded onto a 10% gelatin polyacrylamide gel, and processed as described (Jacot T A, et al., Lab Invest. 1996; 75:791-79). For reverse zymography, samples were loaded onto a 15% gelatin polyacrylamide gel containing 0.5% porcine gelatin and 6 μg recombinant gelatinase A, and processed as described (Elliot S J, et al., J Am Soc Nephrol. 1999; 10: 62-68).

[3] = tested on: MCP-1, RANTES, CXCL1, MIP-2, ICAM-1, and iNOS mRNA; assay: TNFα induced pro-inflammatory gene expression in proximal tubular cell line, real-time PCR; assay type: cell-based, mouse; conditions: TNFα 10 ng/ml, 4 hours, control defined as 1
Method: A proximal tubular cell line obtained from mice transgenic for SV40 T antigen was grown in DMEM containing 10% FBS. For the measurement of TNFα-stimulated gene expression, 1×10^5 proximal tubular cells were transferred to each well of a 6-well-plate. After placing the cells in 0.1% FBS medium for 24 hours, 10 ng/ml of TNFα was added to test wells. Total RNA was isolated from all wells 4 hours later. MCP-1, RANTES, CXCL1, MIP-2, ICAM-1, and iNOS mRNA levels were determined by real-time PCR as described above and corrected by β-actin mRNA levels. TNFα stimulated MCP-1 and RANTES production and release into the medium was measured in TNFα (10 ng/ml) treated and control cells at 24 hours. The amount of MCP-1 or RANTES in the medium was measured by ELISA (Invitrogen Corporation (Carlsband, Calif.).
To determine the effect of PPS on TNFα induced upregulation of proinflammatory genes, proximal tubular cells were pre-treated with PPS (200 μg/ml) for 1 hour before the addition of TNFα (10 ng/ml). MCP-1, RANTES, CXCL1, MIP-2, ICAM-1, and iNOS mRNA levels were determined 4 hours later by real-time PCR. MCP-1 and RANTES production was also measured.

[4] = tested on: podocytes; assay: Albumin permeability of podocyte monolayers (FITC-labeled BSA flux); assay type: cell-based; conditions: 2 hours after TNFα treatment (20 ng/ml)
Method: 1×10^5 podocytes were seeded onto collagen-coated transwell filters ([…] pore-size, Corning, N.Y., N.Y.) placed in the top chamber of each well of a 24-well plate. After cells reached confluence, some wells of cells were treated with TNFα (20 ng/ml), PPS (400 μg/ml), or PPS plus TNFα in 2% FBS medium for 8 hours. Then the medium from both the top and bottom chamber was completely removed, cells were washed twice with PBS and the top chamber was refilled with 0.2 ml 2% FBS medium supplemented with 0.5 mg/ml FITC-labeled BSA (Sigma Aldrich, St Louis, […].), while the bottom chamber was refilled with 0.6 ml 2% FBS medium supplemented with 0.5 mg/ml unlabeled BSA. At different time points, 100 μl aliquots were collected from the bottom chamber and fluorescence was measured by a fluorescence spectrophotometer (485 nm excitation, 535 nm emission). The concentration of FITC-BSA passing through the monolayer was determined by reference to a set of standard dilutions of FITC-BSA. The value of albumin flux through untreated monolayer was arbitrarily defined as 100%.

Question: Which results are given for tunicamycin?
Answer: apoptotic cell death ([1]; proximal tubular cells exposed to inducers of oxidative stress or ER stress): dose dependent increase; cell death ([1]; 0.6 μg/ml of tunicamycin): 38%; cell death ([1]; 1.2 μg/ml of tunicamycin): 89%

Question: OO [H2O2, hydrogen peroxide] was tested. Which apoptotic cell death [1] did it give?
Answer: The apoptotic cell death was “dose dependent increase”.

Question: heparin was tested. Which “effect of heparin treatment on MMP-2 activity compared with the PPS effect” value [2] did it give?
Answer: The value was “comparable”.

Question: Which “fold increase in mRNA expression of MCP-1, RANTES, CXCL-1, MIP-2, ICAM-1 and iNOS” value [3] does the source give for TNFα here?
Answer: Its value is 2-9 fold.

Question: And the “increase in the amount of FITC-labeled albumin that passed through a monolayer of podocytes” value [4]?
Answer: Its value is 34%.
